Data on 100 compounds can be found in ChEMBL document CHEMBL3507680, “University of Dundee, Gates Library screen for HepG2 cell viability”.

This series is described as follows: Human HepG2 cell viability assay in 384 well format. The series is classed as toxicity, cell-based. Details: dose 125 nL, time 70.5 hour; concentration not given beside the values. The following applies: HepG2 cells, read-out: Inhibition.
In the case of `Cc1nc(C)n(CC2CCCCN2CC(=O)Nc2ccncc2)n1` (stereo not given), the cytotoxicity at 70.5 h turned out to be 16.8%.

`Cc1c(Br)cc2c(c1C)OCC(N(C)C)C2=O` (stereo not given): the cytotoxicity at 70.5 h worked out at 19.9%.

Turning to `COc1ccccc1NCC(=O)Nc1cnn(Cc2ccccn2)c1`, the cytotoxicity at 70.5 h is -3.02%.

As for `COc1ccc(CN2CCC(c3cc(O)nc(C)n3)C2)c(F)c1` (stereo not given), the cytotoxicity at 70.5 h is -1.14%.

Consider `CC(=O)N1[C@H](Cn2cncn2)C[C@@H]2CN(c3ncccn3)CC[C@@H]21`, for which the cytotoxicity at 70.5 h amounted to 1.33%.

For `CSCCC(C)NC(=O)N(C)Cc1cc(Cl)cn1C` (stereo not given), the cytotoxicity at 70.5 h was -10.9%.

As to `COC(=O)N1CC2(CCNCC2)c2cc(Cl)ccc21`, the cytotoxicity at 70.5 h was -7.27%.

As for `O=S(=O)(NCC(O)c1ccoc1)c1ccc(Cl)s1` (stereo not given), the cytotoxicity at 70.5 h was determined as 23%.

Turning to `CC(C)Sc1ccc(N2CCN(Cc3ccccn3)CC2)nn1`, the cytotoxicity at 70.5 h is -12.7%.

In the case of `CC(C)[C@H](N)CC(=O)Nc1nc(-c2cnc(N3CCOCC3)nc2)cs1`, the cytotoxicity at 70.5 h is -1.39%.

For `C[C@@H]1CN(Cc2ccccc2F)CC(C(N)=O)O1` (stereo not given in full), the cytotoxicity at 70.5 h was -14.1%.

As to `CSCC(C)CNC(=O)N1CCSC(C)(C)C1` (stereo not given), the cytotoxicity at 70.5 h is -2.74%.

For `CCC(C#N)NC(=O)CCCOc1cccc(C(C)=O)c1` (stereo not given), the cytotoxicity at 70.5 h is -11.3%.

For the compound `O=C(NCCn1nc2ccccn2c1=O)c1sccc1-c1ccccc1`, the cytotoxicity at 70.5 h is -5.5%.

On to `Cn1cnc2c1CCN(Cc1csc(-c3ccc(F)cc3)n1)C2`, for which the cytotoxicity at 70.5 h was -3.43%.

Turning to `Cn1nnc2c(N3CC(C(=O)NCCC4=CCCCC4)C3)ncnc21`, the cytotoxicity at 70.5 h was -18.5%.

For the compound `O=c1[nH]nc2c(S(=O)(=O)N3CCOCC3)cccn12`, the cytotoxicity at 70.5 h was -9.51%.

As to `CCOC(=O)c1sc(NC(=O)CN2C(=O)CCC2=O)c(C#N)c1C`, the cytotoxicity at 70.5 h amounted to 31.1%.

`COC[C@@]12CCC[C@@H]1CN(C(=O)Cc1ccccn1)C2`: the cytotoxicity at 70.5 h was found to be 9.13%.

In the case of `Cn1nccc1-c1nc2c(cc1C(=O)O)CCN(CC1CC1)CC2`, the cytotoxicity at 70.5 h is 12.7%.

For `C=C(C)Cn1nc(C)c(CN2CCN(C3CCCCC3)C(=O)C2)c1C`, the cytotoxicity at 70.5 h was 1.66%.

For the compound `CCC1CCCN(S(=O)(=O)c2cnn(C)c2)C1` (stereo not given), the cytotoxicity at 70.5 h was -0.41%.

Regarding `COc1ccc(CCCN(C)C(=O)c2cc(C(C)=O)c[nH]2)cc1OC`, the cytotoxicity at 70.5 h was -8.38%.

For `CCCNC(=O)C(C)Nc1ccn(Cc2ccccn2)n1` (stereo not given), the cytotoxicity at 70.5 h was 1.09%.

Regarding `CCN1CCC2(CC1)OCCN2C(=O)c1cc(Cl)c(OC)c(Cl)c1`, the cytotoxicity at 70.5 h came to 8.67%.

On to `Cc1ccc(N2CCCC(NCc3ccc4c(c3)CCO4)C2)nn1` (stereo not given), for which the cytotoxicity at 70.5 h was determined as 4.47%.

As for `Cc1cc(C(=O)N2C[C@H]3CC[C@@H]2CN(Cc2ccccn2)C3)nc(C)n1`, the cytotoxicity at 70.5 h is -0.674%.

For `OC(CN1CCN(c2ncccn2)CC1)c1cccc(F)c1` (stereo not given), the cytotoxicity at 70.5 h is -9.46%.

As to `Cc1oc(-c2ccco2)nc1CN1CCc2cnc(C(C)C)nc2C1`, the cytotoxicity at 70.5 h is -12%.

On to `Cc1nc(NCCSc2cnn[nH]2)c2cccnc2n1`, for which the cytotoxicity at 70.5 h came to 5.69%.

For `COCc1cccc(CNC(=O)CN2CCCC2c2noc(C)n2)c1` (stereo not given), the cytotoxicity at 70.5 h was -13.1%.

For the compound `COc1ccc(CN2C[C@@H]3CN(CCO)C[C@@H]3C2=O)cc1`, the cytotoxicity at 70.5 h was -11.6%.

With `Cc1cc(C)c(CNC(=O)N(C)CC2CCCCO2)c(=O)[nH]1` (stereo not given), the cytotoxicity at 70.5 h was -3.49%.

Turning to `CCc1cnc(CNC(=O)NCCc2ccc(O)cc2)s1`, the cytotoxicity at 70.5 h is -1.61%.

In the case of `NS(=O)(=O)CCN(CCc1cccc(F)c1)C1CCCC1`, the cytotoxicity at 70.5 h is -0.787%.

For the compound `CN(C)c1nc(N)nc(CN2CCCC2c2ccsc2)n1` (stereo not given), the cytotoxicity at 70.5 h was -7.29%.

As to `c1cnc(CC2COCCN(C3CCCCC3)C2)cn1` (stereo not given), the cytotoxicity at 70.5 h came out at 1.48%.

Regarding `COCCN1CCOCC12CCN(c1nccs1)CC2`, the cytotoxicity at 70.5 h is -20.8%.

Regarding `CC(NC(=O)N1CCC(OCc2ccccc2)CC1)c1nncn1C` (stereo not given), the cytotoxicity at 70.5 h is -11.3%.

Consider `Cc1nc(C(F)(F)F)nc(N2CCC3(CC2)CC(C(=O)O)N(C)C3)c1C` (stereo not given), for which the cytotoxicity at 70.5 h is -5.6%.

Regarding `Cc1ccc(CN2CCOC(C)(c3cnn(C)c3)C2)cc1` (stereo not given), the cytotoxicity at 70.5 h is -2.83%.

Take `CNc1cc(C)nc(C2CN(Cc3cc[nH]n3)CCO2)c1` (stereo not given): the cytotoxicity at 70.5 h is -7.87%.

Consider `c1cnn(Cc2ccc(CN3CCC4(CCNCC4)C3)cc2)c1`, for which the cytotoxicity at 70.5 h came to 2.52%.

On to `Cc1cc(C(=O)N2CCO[C@H]3[C@H](Oc4ccccn4)CC[C@@H]32)c(C)[nH]1`, for which the cytotoxicity at 70.5 h is -8.01%.

Consider `COCCN1CCN(S(C)(=O)=O)Cc2cccnc21`, for which the cytotoxicity at 70.5 h is -5.85%.

As for `CN(CC(=O)N1CCCC1c1noc(C2CC2)n1)Cc1ccccc1` (stereo not given), the cytotoxicity at 70.5 h is -7.61%.

Regarding `CCc1nc(CN2CCCC(NCc3nc4cccnc4[nH]3)C2)no1` (stereo not given), the cytotoxicity at 70.5 h worked out at 18.9%.

`O=C(NCC(=O)N1CCCC(c2ccccc2)CC1)c1ccoc1` (stereo not given): the cytotoxicity at 70.5 h stood at 1.06%.

Regarding `Cn1cnc(-c2nc(C(=O)NCC3CCCO3)c3ccccn23)c1` (stereo not given), the cytotoxicity at 70.5 h was -0.333%.

As for `COc1cccc(Cn2c(=O)n(C)c(=O)c3sccc32)c1`, the cytotoxicity at 70.5 h was 0.75%.

On to `O=C(O)[C@@H]1CN(C(=O)CSCCN2CCCC2)C[C@H]1c1ccccc1`, for which the cytotoxicity at 70.5 h was 1.16%.

Consider `NC(=O)CN1CC[C@@]2(O)CCCC[C@H]2[C@@H]1c1ccc2c(c1)OCO2`, for which the cytotoxicity at 70.5 h is -2.64%.

Take `CC(=O)N1CCN(C(=O)CNc2c(C)cccc2OC(F)F)CC1`: the cytotoxicity at 70.5 h was -10.2%.

Take `Cc1[nH]c2c(C)ccc(C)c2c1CC(=O)NC1CCCNC1=O` (stereo not given): the cytotoxicity at 70.5 h is -5.85%.

Consider `Cc1cc(NCc2ccc(C#N)cc2)n2nc(C)cc2n1`, for which the cytotoxicity at 70.5 h is -4.7%.

`CC1CN(C)c2ccccc2CN1C(=O)c1cnsn1` (stereo not given): the cytotoxicity at 70.5 h is -0.187%.

As for `Cn1ccnc1CN1CCN(CCOc2cccc(C#N)c2)CC1`, the cytotoxicity at 70.5 h was -0.0786%.

For `CCCc1noc(CCC(=O)N2CCCCC2Cn2cc(C)cn2)n1` (stereo not given), the cytotoxicity at 70.5 h is -13.5%.

On to `CCOc1ccccc1CN(CC)Cc1ccc(S(C)(=O)=O)cc1`, for which the cytotoxicity at 70.5 h is -5.03%.

`CC(NC(=O)N1CCCC1)c1ccc(S(N)(=O)=O)cc1` (stereo not given): the cytotoxicity at 70.5 h is -13%.

Turning to `O=C(NCC(F)F)c1ccc(S(=O)(=O)N2CCCC(O)C2)cc1` (stereo not given), the cytotoxicity at 70.5 h was determined as 18.2%.

As to `CN(Cc1noc(C2CC2)n1)C1CCN(CCc2cccs2)C1` (stereo not given), the cytotoxicity at 70.5 h is -2.4%.

Take `COc1ccc(CN2CCC[C@H]2c2nc(-c3cncnc3N)no2)cc1`: the cytotoxicity at 70.5 h was 12.8%.

As to `O=C(c1ccc(=O)[nH]n1)N1CCC(CN2CCOCC2)CC1`, the cytotoxicity at 70.5 h is -9.25%.

Take `CCS(=O)(=O)N1CCC2(CC1)CC(COC)N(c1ncccn1)C2` (stereo not given): the cytotoxicity at 70.5 h was 2.68%.

Turning to `CNC(=O)CN1CCOCC12CCN(CCc1ccccc1)CC2`, the cytotoxicity at 70.5 h was -13.5%.

`CNC(=O)CS(=O)(=O)Cc1cc(Cl)c2c(c1)OCCCO2`: the cytotoxicity at 70.5 h is 25.7%.

Consider `COc1ccccc1OCc1cc(C(=O)N2CCN(C(C)=O)CC2)n[nH]1`, for which the cytotoxicity at 70.5 h is -5.97%.

Consider `O=C1CCc2ccccc2N1CCCn1cnnn1`, for which the cytotoxicity at 70.5 h is -7.93%.

Regarding `COc1cc(N2CC[C@@H](O)[C@@H]2Cc2ccccc2)ncn1`, the cytotoxicity at 70.5 h is -5.14%.

Turning to `CCCn1ncc(C(=O)N2CCN(C(=O)c3ccc[nH]3)CC2)c1C`, the cytotoxicity at 70.5 h is -7.32%.

For the compound `Fc1ccc(-c2nc(CN3CCCC3Cn3cncn3)co2)cc1` (stereo not given), the cytotoxicity at 70.5 h amounted to 17.6%.

In the case of `CCOCCN1CCN(CCC(=O)N2CCCCC2)CC1`, the cytotoxicity at 70.5 h is -8.84%.

Regarding `Cc1ncsc1CCC(=O)N(C)Cc1nc2ccccc2n1C`, the cytotoxicity at 70.5 h was -1.06%.

Take `CCCc1nc(C[S+]([O-])Cc2cn3cccc(C)c3n2)no1` (stereo not given): the cytotoxicity at 70.5 h is -3.84%.

In the case of `Cc1ccc(NC(=O)NCCCn2nc3ccccn3c2=O)cc1`, the cytotoxicity at 70.5 h was -0.527%.

Turning to `Cc1nc(-c2ccsc2)ccc1C(=O)NC(C)CN1CCOCC1` (stereo not given), the cytotoxicity at 70.5 h was -3.57%.

For `CC(C)(C)CCN1CCC(c2nnc(Cn3cccn3)n2C2CC2)CC1`, the cytotoxicity at 70.5 h is -9.38%.

As for `CCC(=O)Nc1ncn(Cc2cccnc2)n1`, the cytotoxicity at 70.5 h is 15.8%.

Take `CCc1nc(C2CCCN2c2ncc(C(N)=O)cc2Cl)no1` (stereo not given): the cytotoxicity at 70.5 h is 3.61%.

For the compound `CC(C)(C)c1ccc(C2(C(=O)NCCCS(C)(=O)=O)CC2)cc1`, the cytotoxicity at 70.5 h was -1.31%.

Consider `CC(C)C1SCC(=O)Nc2c1cnn2-c1ccc(Cl)cc1` (stereo not given), for which the cytotoxicity at 70.5 h is -1.66%.

As for `Cc1cc(C(=O)N2CC[C@@H]3CN(CCC(C)C)S(=O)(=O)[C@@H]3CC2)no1`, the cytotoxicity at 70.5 h was -2.89%.

Turning to `CC(C)(C)NC(=O)NC(=O)COc1nc(C(C)(C)C)no1`, the cytotoxicity at 70.5 h was 13%.

For the compound `COc1cc2ccn(CCCO)c(=O)c2cc1F`, the cytotoxicity at 70.5 h is -6.17%.

Turning to `Cc1nc(CN2CCC(N(C)Cc3nnc(C4CC4)n3C)C2)cs1` (stereo not given), the cytotoxicity at 70.5 h is -1.39%.

For `CC(C)N(C)CC(=O)Nc1ccc(-n2ccc(C(N)=O)n2)cc1`, the cytotoxicity at 70.5 h is -2.55%.

Regarding `O=C(NCCN1CCCCCC1)c1coc(COc2ccc(F)cc2)n1`, the cytotoxicity at 70.5 h was determined as 8.68%.

As to `O=C(NCCn1cccc1)C1CCCN(C2CCCC2)C1` (stereo not given), the cytotoxicity at 70.5 h is 7.15%.

`CO[C@H]1CC[C@H]2[C@H]1OCCN2C(=O)CCOc1ccccc1`: the cytotoxicity at 70.5 h was -2.84%.

`Cc1cnn(CC2CCN(CC(O)Cn3cccn3)CC2)c1` (stereo not given): the cytotoxicity at 70.5 h is -6.24%.

`COCCN(Cc1cccnc1)S(=O)(=O)c1ccc(F)cc1C`: the cytotoxicity at 70.5 h is -4.8%.

For `Cc1nnc(CN(C)S(=O)(=O)c2ccc(Br)cc2Cl)n1C`, the cytotoxicity at 70.5 h is -8.93%.

As for `Cc1ccc(C(=O)O)cc1NC(=O)C1CC=CC1`, the cytotoxicity at 70.5 h is 22.9%.

`CCc1nc(CN(C)C(=O)C2CCC(=O)N(CC3CCCCC3)C2)no1` (stereo not given): the cytotoxicity at 70.5 h is -4.07%.

On to `Cc1cc2nc(C3CCCCC3)c(-c3ccnc(NCCO)n3)cn2n1`, for which the cytotoxicity at 70.5 h is -5.35%.

Turning to `CCOC(C)C(=O)Nc1ccnn1-c1ccccc1C` (stereo not given), the cytotoxicity at 70.5 h came out at 7.99%.

For `CN(C)CCOCc1nnc2n1CCN(Cc1ccc(F)cc1)CC2`, the cytotoxicity at 70.5 h came to 23.8%.

`Cc1ccc(CC(=O)N2CCCC(n3ccnc3C(C)C)C2)cn1` (stereo not given): the cytotoxicity at 70.5 h is -7.44%.

On to `CC(C)c1noc(CCC(=O)NC(C)c2nnc3n2CCCCC3)n1` (stereo not given), for which the cytotoxicity at 70.5 h is -6.86%.
